Patent US10877036B2, “Biosensor based on Gβγ-interacting proteins to monitor G-protein activation” (priority 2014, dated 2020)
Residue numbers refer to the chain shown, from its start. Starred links: 1 amine or outer side, 2 acyl side, 3 side chain; linkers in the order of their positions; H or OH if unused. Positions of bridges follow the written chain, without caps; N, C: chain ends. Non-standard residues stand in square brackets, D forms with d. Residues, ends and D or L forms follow the SMILES beside them. *: point of attachment. Leu(3R-OH,Nα-propionyl) = CCC(=O)N[C@H](C(=O)*)[C@H](O)C(C)C; X1 = CC(C)[C@@H](O[*:3])[C@H](N[*:1])C(=O)[*:2]; NMeT = CN[C@H](C(=O)O)[C@@H](C)O; dPhLac = O=C(O)[C@H](O)Cc1ccccc1; NMeA = CN[C@@H](C)C(=O)O; NMeDha = C=C(NC)C(=O)O

Columns and labels:
[1] = target: T1, angiotensin II type 1 receptor (AT1R) (Homo sapiens, UniProt P30556); assay: Ligand profiling with the βγIP-based BRET biosensor, AT1R with Gαq or Gα12; assay type: cell-based; conditions: Gα12 versus Gαq, FIG. 8C
T1 construct: host or cells: HEK293
T1 sequence (P30556 1-359): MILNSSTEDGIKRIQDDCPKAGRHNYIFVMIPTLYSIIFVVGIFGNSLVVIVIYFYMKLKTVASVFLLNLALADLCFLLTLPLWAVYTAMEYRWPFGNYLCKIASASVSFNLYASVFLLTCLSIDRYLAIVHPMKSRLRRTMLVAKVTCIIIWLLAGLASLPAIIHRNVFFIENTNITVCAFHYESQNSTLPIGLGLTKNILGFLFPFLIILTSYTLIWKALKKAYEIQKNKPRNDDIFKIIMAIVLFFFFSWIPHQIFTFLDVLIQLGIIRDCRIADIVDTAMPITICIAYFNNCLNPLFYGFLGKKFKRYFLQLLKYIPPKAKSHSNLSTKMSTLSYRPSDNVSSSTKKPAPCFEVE
Procedure: Cell culture and transfections. Human embryonic kidney 293 (HEK293) cells were maintained in Dulbecco's Modified Eagle's Medium (DMEM) supplemented with 10% fetal bovine serum, 100 unit/ml penicillin/streptomycin at 37° C. in a humidified atmosphere with 5% CO2. Two days before the experiments, HEK293 cells were transfected with the indicated plasmids using poly-ethylenimine 25-kDa linear (PEI) as a transfecting agent (at a ratio of 3 to 1, PEI/DNA) (Hamdan, Rochdi et al. 2007), and then directly seeded in 96-well plates pre-treated with poly-L-ornithine hydrobromide or Poly-D-Lysine, at a density of 35,000 cells per well (for BRET and PCA assays in living cells), or 6-well plates at a density of 1,000,000 cells per well (for BRET assays on membrane preparations).
(§1) BRET assays in living cells. […] BRET values were then collected using a Mithras™ LB940 Multimode Microplate Reader or a TRISTAR® LB942 Multimode Microplate Reader, equipped with the following filters: 400 nm±70 nm (energy donor) and 515 nm±20 nm (energy acceptor). BRET values were determined by calculating the ratio of the light emitted by GFP (515 nm) over the light emitted by the Rluc (400 nm). To determine the % of activation (Stim as % of basal), BRET values obtained for the agonist treated cells where expressed as a percentage of the BRET values obtained with the corresponding cells treated with vehicle.

Gαi1 = target: T2, Gαi1 (Homo sapiens, UniProt P63096); assay: G-protein inhibitor pre-treatment, D2R/Gαi1 BRET biosensor response; assay type: cell-based; conditions: D2R/Gαi1, agonist rotigotine; 100 nM Ubo-Qic for 20 minutes or 100 ng/ml pertussis toxin overnight; FIG. 5B
T2 construct: host or cells: HEK293
T2 sequence (P63096 whole entry): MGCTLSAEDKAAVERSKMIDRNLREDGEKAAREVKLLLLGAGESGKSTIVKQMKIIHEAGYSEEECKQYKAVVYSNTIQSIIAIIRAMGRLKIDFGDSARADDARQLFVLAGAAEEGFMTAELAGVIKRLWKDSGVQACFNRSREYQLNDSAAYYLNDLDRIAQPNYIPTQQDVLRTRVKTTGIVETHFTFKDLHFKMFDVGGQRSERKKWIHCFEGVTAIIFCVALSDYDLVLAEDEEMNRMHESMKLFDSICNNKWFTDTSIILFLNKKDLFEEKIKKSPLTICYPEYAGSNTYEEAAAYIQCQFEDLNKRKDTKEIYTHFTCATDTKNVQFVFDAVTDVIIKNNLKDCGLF
Procedure: (§2) BRET assays in living cells. Cells seeded in 96-well plates were washed twice with Phosphate Buffered Saline (PBS), followed by Tyrode buffer addition (composition: 137 mM NaCl, 0.9 mM KCl, 1 mM MgCl2, 11.9 mM NaHCO3, 3.6 mM NaH2PO4, 25 mM HEPES, 5.5 mM Glucose and 1 mM CaCl2, pH 7.4). The cells were then treated with the different ligands or vehicle for the indicated times. The Rluc substrate, coelenterazine 400a, was added at a final concentration of 2.5 μM and cells were further incubated for an additional 5 minutes. BRET values were then collected using a Mithras™ LB940 Multimode Microplate Reader or a TRISTAR® LB942 Multimode Microplate Reader, equipped with the following filters: 400 nm±70 nm (energy donor) and 515 nm±20 nm (energy acceptor). BRET values were determined by calculating the ratio of the light emitted by GFP (515 nm) over the light emitted by the Rluc (400 nm). To determine the % of activation (Stim as % of basal), BRET values obtained for the agonist treated cells where expressed as a percentage of the BRET values obtained with the corresponding cells treated with vehicle.
(§3) G-protein inhibitors. BRET assays were performed as described previously, except that cells were pre-treated overnight at 37° C. with 100 ng/ml of pertussis toxin, or, for 20 minutes at 37° C. with 100 nM of Ubo-Qic.

Gα12 = target: T3, Gα12 (Homo sapiens, UniProt Q03113); assay: Ubo-Qic selectivity, TPαR-mediated G-protein activation (BRET biosensor); assay type: cell-based; conditions: U-46619 100 nM, FIG. 5C
T3 construct: host or cells: HEK293
T3 sequence (Q03113 1-381): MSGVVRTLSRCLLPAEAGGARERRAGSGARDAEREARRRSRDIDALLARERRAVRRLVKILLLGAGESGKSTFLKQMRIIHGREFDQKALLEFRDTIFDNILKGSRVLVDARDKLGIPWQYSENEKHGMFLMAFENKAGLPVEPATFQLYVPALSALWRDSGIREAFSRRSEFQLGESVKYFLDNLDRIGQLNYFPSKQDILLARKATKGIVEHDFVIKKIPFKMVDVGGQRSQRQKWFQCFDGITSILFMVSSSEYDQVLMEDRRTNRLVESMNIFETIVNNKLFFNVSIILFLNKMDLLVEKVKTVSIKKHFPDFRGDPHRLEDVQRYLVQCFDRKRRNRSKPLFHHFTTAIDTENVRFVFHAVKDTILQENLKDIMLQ
Procedure: as §2, §3

Gα13 = target: T4, Gα13 (Homo sapiens, UniProt Q14344); assay: as above; assay type: cell-based; conditions: U-46619 100 nM, FIG. 5C
T4 construct: host or cells: HEK293
T4 sequence (Q14344 1-377): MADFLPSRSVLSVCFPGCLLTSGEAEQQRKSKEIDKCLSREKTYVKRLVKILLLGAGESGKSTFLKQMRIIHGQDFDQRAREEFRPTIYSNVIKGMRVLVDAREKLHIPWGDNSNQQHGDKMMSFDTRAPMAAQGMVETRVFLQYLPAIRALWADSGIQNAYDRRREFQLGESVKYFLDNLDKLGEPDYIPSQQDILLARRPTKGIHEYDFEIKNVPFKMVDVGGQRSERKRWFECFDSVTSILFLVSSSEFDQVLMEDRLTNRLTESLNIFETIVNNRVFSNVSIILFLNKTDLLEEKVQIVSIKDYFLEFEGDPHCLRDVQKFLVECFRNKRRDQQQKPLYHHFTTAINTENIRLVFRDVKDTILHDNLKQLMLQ
Procedure: as §2, §3

Gα15/16 = target: T5, Gα15/16 (Homo sapiens, UniProt P30679); assay: as above; assay type: cell-based; conditions: U-46619 100 nM, FIG. 5C
T5 construct: host or cells: HEK293
T5 sequence (P30679 1-374): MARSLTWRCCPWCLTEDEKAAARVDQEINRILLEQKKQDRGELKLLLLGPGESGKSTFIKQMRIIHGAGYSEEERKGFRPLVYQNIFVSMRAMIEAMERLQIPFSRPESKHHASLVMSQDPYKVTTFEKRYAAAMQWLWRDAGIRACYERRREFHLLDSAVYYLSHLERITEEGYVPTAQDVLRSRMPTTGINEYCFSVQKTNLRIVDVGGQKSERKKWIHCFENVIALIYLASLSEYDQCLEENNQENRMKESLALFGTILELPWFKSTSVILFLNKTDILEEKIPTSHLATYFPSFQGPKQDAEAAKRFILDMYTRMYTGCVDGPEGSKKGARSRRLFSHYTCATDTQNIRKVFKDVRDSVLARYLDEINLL
Procedure: as §2, §3

GαqF75G = target: T6, GαqF75G (Homo sapiens, UniProt P50148, F75G); assay: Ubo-Qic sensitivity of the activation of mutant Gαq (BRET biosensor); assay type: cell-based; conditions: Gαq Phe75 to glycine; FIG. 5D
T6 construct: expressed in transfected cells; host or cells: HEK293
T6 sequence (P50148 1-359 F75G): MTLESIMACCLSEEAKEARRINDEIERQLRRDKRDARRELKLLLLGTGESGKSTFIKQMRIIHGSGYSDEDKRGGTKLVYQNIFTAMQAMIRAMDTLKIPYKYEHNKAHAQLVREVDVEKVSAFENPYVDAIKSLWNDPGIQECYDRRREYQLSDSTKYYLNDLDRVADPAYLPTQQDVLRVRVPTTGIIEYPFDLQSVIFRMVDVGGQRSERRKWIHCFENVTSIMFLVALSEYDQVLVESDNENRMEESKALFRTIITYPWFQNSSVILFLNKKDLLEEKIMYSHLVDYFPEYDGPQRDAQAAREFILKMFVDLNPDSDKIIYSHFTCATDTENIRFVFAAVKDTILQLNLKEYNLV
Source text: (§4) Expression vectors: Receptors and G-proteins. The plasmid encoding AT1 R was a generous gift from Stéphane Laporte (McGill University, Montréal, Canada). Gαq, Gα11, Gα12, Gα13, Gα14, Gα15/16, GαoA, GαoB, Gαz, Gαs, Gαi1, Gαi2, Gαi3, Gβ1, TPαR, D2R and α1BAR were obtained from the cDNA Resource Center (cDNA.org). Plasmids encoding mutant Gα proteins including GαqG66K, GαqY67C and GαqF75G, were obtained by site-directed mutagenesis (PCR overlap) of the Gαq wild-type protein coding sequence using the primers depicted in Table I. The PCR fragments were digested with Acc65I+XhoI restriction enzymes and cloned in pCDNA3.1 Zeo(+) (from Invitrogen®, Carlsbad, Calif.) digested Acc65I+XhoI. […]
as §1, with “vehicle. […]” for “vehicle.”

Gαq = target: T7, Gαq (Homo sapiens, UniProt P50148); assay: G-protein inhibitor pre-treatment, TPαR/Gαq BRET biosensor response; assay type: cell-based; conditions: agonist U-46619, 100 nM Ubo-Qic for 20 minutes or 100 ng/ml pertussis toxin overnight, FIG. 5A
T7 construct: host or cells: HEK293
T7 sequence (P50148 1-359): T6 sequence (P50148 1-359 F75G) with G75F
Procedure: as §2, §3

[2] = tested on: Gαq substituted at position 67 (Y67C, Y67G, Y67S & Y67L); assay: Ubo-Qic sensitivity of the activation of mutant Gαq (BRET biosensor); assay type: cell-based, human; conditions: FIG. 5D
Source text: as §4
as §1, with “vehicle. […]” for “vehicle.”

[Asp^1, Val^5, Gly^8]-AngII [DVG] was tested, and the “efficacy of G-protein activation relative to angiotensin II response” value [1] was “better efficacy for Gα12 activation than Gαq”.

In the case of C=C1C(=O)N[C@@H](C)C(=O)N(C)[C@@H](C)C(=O)N[C@@H]([C@H](OC(=O)[C@@H](NC(=O)CC)[C@H](O)C(C)C)C(C)C)C(=O)N(C)[C@@H]([C@@H](C)OC)C(=O)O[C@H](C(C)C)[C@H](NC(C)=O)C(=O)O[C@H](Cc2ccccc2)C(=O)N1C [Ubo-Qic, L-threonine,(3R)-N-acetyl-3-hydroxy-L-leucyl-(aR)-a-hydroxybenzenepropanoyl-2,3-idehydro-N-methylalanyl-L-alanyl-N-methyl-L-alanyl-(3R)-3-[[(2S,3R)-3-hydroxy-4-methyl-1-oxo-2-[(1-oxopropyl)amino]pentyl]oxy]-L-leucyl-N,O-dimethyl-,(7→1)-lactone (9CI)] (Ac-[X1][dPhLac][NMeDha]A[NMeA][X1](Leu(3R-OH,Nα-propionyl))[NMeT](Me); ester 1-C), the “effect of pre-treatment on the biosensor BRET response after agonist incubation” value (Gαi1) is reported as “no detectable effect”, the “sensitivity of G-protein activation to the inhibitor” value (Gα12) is reported as “insensitive” and the “sensitivity of G-protein activation to the inhibitor” value (Gα13) is reported as “insensitive”. For the same molecule, the “sensitivity of G-protein activation to the inhibitor” value (Gα15/16) was “insensitive”, the “inhibition of mutant Gαq activation” value (GαqF75G) was “partial” and the “effect of pre-treatment on the BRET response following agonist stimulation” value (Gαq) was “completely abolished”. For the same molecule, the “sensitivity of mutant Gαq activation to the inhibitor” value [2] was “resistance”.
